Counter-ions that a name gives are not always drawn. Like-named read-outs stand apart in the source and are kept apart here.
Assays:
[1] = tested on: locomotor activity in mice; assay: Inhibition of locomotor activity in mice; type: in vivo; conditions: Mus musculus, read-out: Inhibition of Locomotor Activity in Mice ED50
Method: (§1) The compounds of Formula I are valuable dopaminergic agents. […] Thus, the compounds of Formula I were tested for their ability to inhibit locomotor activity in mice according to the assay described by J. R. McLean, et al, Pharmacology, Biochemistry and Behavior, Volume 8, pages 97-99 (1978); and for their ability to inhibit [^3 H]-spiroperidol binding in a receptor assay described by D. Grigoriadis and P. Seman, Journal of Neurochemistry, Volume 44, pages 1925-1935 (1985). The above test methods are incorporated herein by reference. The data in the table show the dopaminergic activity of representative compounds of Formula I.

[2] = target: T1, [^3 H]-spiroperidol binding (Homo sapiens, UniProt P14416); assay: Inhibition of [^3 H]-spiroperidol binding in a receptor assay
T1 construct: from tissue; own knowledge of the cited 1985 method, which predates the cloning of D2)
T1 sequence (P14416 whole entry): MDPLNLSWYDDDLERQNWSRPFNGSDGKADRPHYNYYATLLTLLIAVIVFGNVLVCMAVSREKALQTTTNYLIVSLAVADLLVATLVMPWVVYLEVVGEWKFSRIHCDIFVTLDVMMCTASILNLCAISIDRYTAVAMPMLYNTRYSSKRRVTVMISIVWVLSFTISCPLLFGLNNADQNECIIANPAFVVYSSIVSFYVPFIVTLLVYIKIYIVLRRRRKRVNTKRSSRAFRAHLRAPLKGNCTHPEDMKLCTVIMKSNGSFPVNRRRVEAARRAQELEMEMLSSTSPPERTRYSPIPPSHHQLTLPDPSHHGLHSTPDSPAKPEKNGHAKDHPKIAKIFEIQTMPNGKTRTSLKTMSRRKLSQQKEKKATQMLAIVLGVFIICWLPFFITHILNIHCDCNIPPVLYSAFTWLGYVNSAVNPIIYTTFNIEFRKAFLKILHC
Method: as §1

[3] = [^3 H]spiroperidol, receptor assay, read-out: Inhibition of [^3 H]Spiroperidol Binding IC50

IC50 [2, 3] [nM]	SMILES	ED50 ([1]; mice, IP) [mg/kg]	ED50 ([1]; ip) [mg/kg]	IC50 [2] [nM]
69.8	c1ccc(N2CCN(CC[C@H]3CC[C@H](c4c[nH]c5ccccc54)CC3)CC2)nc1 [Example 1, trans 3-[4-[2-[4-(2-pyridinyl)-1-piperazinyl]ethyl]cyclohexyl]-1H-indole]	1.4	–	–
193	c1ccc(N2CCN(CC[C@H]3CC[C@@H](c4c[nH]c5ccccc54)CC3)CC2)nc1 [Example 2, Cis 3-[4-[2-[4-(2-pyridinyl)-1-piperazinyl]ethyl]cyclohexyl]-1H-indole]	4.7	–	–
224	c1cnc(N2CCN(CC[C@H]3CC[C@H](c4c[nH]c5ccccc54)CC3)CC2)nc1 [Example 3, Trans 3-[4-[2-[4-(2-pyrimidinyl)-1-piperazinyl]ethyl]cyclohexyl]-1H-indole,hydrochloride]	3.3	–	–
349	c1cnc(N2CCN(CC[C@H]3CC[C@@H](c4c[nH]c5ccccc54)CC3)CC2)nc1 [Example 4, Cis 3-[4-[2-[4-(2-pyrimidinyl)-1-piperazinyl]ethyl]cyclohexyl]-1H-indole, hydrochloride]	8.6	–	–
–	C1=C(c2ccccc2)CCN(CC[C@H]2CC[C@H](c3c[nH]c4ccccc43)CC2)C1 [Example 5, Trans 3-[4-[2-(3,6-dihydro-4-phenyl-1(2H)-pyridinyl)ethyl]cyclohexyl]-1H-indole]	–	9	12.1
–	C1=C(c2ccccc2)CCN(CC[C@H]2CC[C@@H](c3c[nH]c4ccccc43)CC2)C1 [Example 6, Cis 3-[4-[2-(3,6-dihydro-4-phenyl-1(2H)-pyridinyl)ethyl]cyclohexyl]-1H-indole]	–	16.6	39.3
270	C1=C(c2c[nH]c3ccccc23)CCC(CCN2CCN(c3ccccn3)CC2)C1 (stereo not shown) [Example 16]	6.25	–	–

SMILES	IC50 [2, 3] [nM]	ED50 ([1]; mice, IP) [mg/kg]	ED50 ([1]; ip) [mg/kg]	IC50 [2] [nM]
C1=C(c2cccs2)CCN(CC[C@H]2CC[C@H](c3c[nH]c4ccccc43)CC2)C1 [Example 7, Trans 3-[4-[2-(3,6-dihydro-4-(2-thienyl)-1(2H)-pyridinyl)ethyl]cyclohexyl]-1H-indole]	878	–	11.7	–
